Data as given in PMC8780741, “Integration of In Silico, In Vitro and In Situ Tools for the Preformulation and Characterization of a Novel Cardio-Neuroprotective Compound during the Early Stages of Drug Development” (Pharmaceutics, 2022).

Target: T1, P-glycoprotein transporter (MDR1) (Homo sapiens, UniProt P08183)
T1 construct: expressed in transfected cells; host or cells: MDCK-MDR1 (transfected clone of Madin-Darby Canine Kidney cells)
Experiment: P-glycoprotein substrate assessment (B-A permeability MDCK-MDR1 vs MDCK)
Assay type: in vitro ADME
Details: B-A permeability higher in MDCK-MDR1 than in MDCK (p < 0.05)
Procedure: MDCK (Madin–Darby Canine Kidney) cells, their transfected clone MDCK-MDR1, and Caco-2 cells were grown in the modified Dulbecco Eagle medium added with L-glutamine, fetal bovine serum and penicillin−streptomycin. The number of cells seeded in transwells with a surface area of 4.2 cm^2 depended on the cell line: 250,000 cells/cm^2 for MDCK and Caco-2 and 150,000 cells/cm^2 for MDCK-MDR1. Experiments were performed between 7 and 9 days for MDCK and MDCK-MDR1 and between 19 and 21 for Caco-2 cells after seeding. Prior to drug placement, cell monolayer integrity was assessed by measuring transepithelial electrical resistance (TEER). Transport studies were performed on an orbital shaker at 37 °C and 50 rpm. Four samples of 200 μL were taken from the receptor side at 0, 15, 30, 60 and 90 min, and two samples from the donor compartment at the beginning and end of the experiment. A standard experiment was performed with the same buffer for the apical and basolateral compartments in the apical to basolateral (A-B) and basolateral to apical (B-A) directions. The drug concentration was 100 μM in all experiments and samples were analyzed immediately by HPLC. The retention time was 2.3 min at maximum wavelengths (λmax = 260 nm). […] The lower limit of quantitation of JM-20 was adequate to interpolate the values obtained in the samples. […]

T1 sequence (P08183 whole entry): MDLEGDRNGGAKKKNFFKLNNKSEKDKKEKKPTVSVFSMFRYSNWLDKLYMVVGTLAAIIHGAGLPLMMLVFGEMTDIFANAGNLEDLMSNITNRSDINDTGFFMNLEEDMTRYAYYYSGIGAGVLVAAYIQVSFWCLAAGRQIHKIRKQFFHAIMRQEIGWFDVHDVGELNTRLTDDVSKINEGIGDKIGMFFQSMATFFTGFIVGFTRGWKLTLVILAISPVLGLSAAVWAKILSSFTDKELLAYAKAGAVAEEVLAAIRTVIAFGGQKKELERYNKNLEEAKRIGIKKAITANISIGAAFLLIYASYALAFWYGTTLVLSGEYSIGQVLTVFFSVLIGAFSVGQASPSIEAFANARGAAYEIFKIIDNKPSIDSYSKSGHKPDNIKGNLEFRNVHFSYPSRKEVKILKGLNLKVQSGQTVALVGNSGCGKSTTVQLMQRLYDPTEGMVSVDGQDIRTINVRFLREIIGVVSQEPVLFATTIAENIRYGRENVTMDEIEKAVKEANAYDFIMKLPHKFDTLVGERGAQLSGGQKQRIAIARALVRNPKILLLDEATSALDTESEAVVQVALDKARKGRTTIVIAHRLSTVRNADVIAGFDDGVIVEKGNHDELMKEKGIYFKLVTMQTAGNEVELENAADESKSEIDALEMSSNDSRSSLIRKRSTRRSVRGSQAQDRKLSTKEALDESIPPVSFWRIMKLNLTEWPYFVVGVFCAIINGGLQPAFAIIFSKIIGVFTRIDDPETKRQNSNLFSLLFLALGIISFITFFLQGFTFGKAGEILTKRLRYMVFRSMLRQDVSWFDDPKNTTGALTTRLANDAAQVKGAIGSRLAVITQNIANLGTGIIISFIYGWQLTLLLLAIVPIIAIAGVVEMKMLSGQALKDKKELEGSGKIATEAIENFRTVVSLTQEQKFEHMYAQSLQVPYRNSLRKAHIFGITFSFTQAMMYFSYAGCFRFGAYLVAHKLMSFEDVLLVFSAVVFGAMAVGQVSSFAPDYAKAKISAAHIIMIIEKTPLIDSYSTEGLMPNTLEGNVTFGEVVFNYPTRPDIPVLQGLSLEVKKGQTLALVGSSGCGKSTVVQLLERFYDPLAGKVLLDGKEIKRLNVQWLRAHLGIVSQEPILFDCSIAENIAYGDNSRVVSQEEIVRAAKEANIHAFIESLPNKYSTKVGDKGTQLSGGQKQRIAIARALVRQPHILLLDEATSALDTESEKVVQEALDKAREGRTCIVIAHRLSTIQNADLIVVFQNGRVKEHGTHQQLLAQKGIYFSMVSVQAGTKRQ

CCOC(=O)C1=C(C)NC2=C(C=Nc3ccccc3N2)C1c1ccccc1[N+](=O)[O-] (stereo not shown) [JM-20, 3-ethoxycarbonyl-2-methyl-4-(2-nitrophenyl)-4,11-dihydro-1H-pyrido [2,3-b][1,5] benzodiazepine]
Substrate of the P-glycoprotein transporter (MDR1): substrate of the P-glycoprotein transporter (MDR1)
